Reference: US5245051A, “Antipsychotic chroman derivatives of benzodioxanmethylamine” (American Home Products Corporation, priority 1992, dated 1993)

Legend:
[1] = tested on: 5-HT1A receptor; conditions: (-)-isomer versus dextrorotary isomer; cited from earlier work
[2] = target: T1, dopamine D2 receptor (Rattus norvegicus, UniProt P61169); assay: Affinity for dopamine D2 receptor (3H-quinpirole, homogenized rat striatal brain tissue); assay type: binding
T1 construct: homogenized rat striatal brain tissue; from tissue; host or cells: rat striatal brain tissue homogenate
Protocol: Affinity for the dopamine D2 receptor was established by a modification of the standard experimental test procedure of Seemen and Schaus, European Journal of Pharmacology 203: 105-109, 1991, wherein homogenized rat striatal brain tissue is incubated with ^3 H-quinpirole and various concentrations of test compound, filtered and washed and counted in a Betaplate scintillation counter.

[3] = tested on: dopa accumulation; assay: Inhibition of dopa accumulation in GBL-treated rats (effect on dopamine synthesis, Walters and Roth); assay type: in vivo, rat (male, Sprague-Dawley); conditions: sc, limbic (L) brain tissue, rat, read-out: Dopa Accumulation (% inhib. @ 10 mg/kg, sc)
Protocol: The effect of the compounds of the invention on the synthesis of dopamine was established by the method of Walters and Roth, Naunyn-Schmiedeberg's Arch. Pharmacol. 296:5-14, 1976, in which rats (male, Sprague-Dawley, Charles River, 200-350 g) were administered vehicle or test drug ten minutes prior to the administration of gamma butyrolactone (GBL; 750 mg/kg, ip to inhibit dopaminergic impulse flow) and 20 minutes prior to NSD-1015 (100 mg/kg, ip to prevent the conversion of dopa to dopamine). Thirty minutes after NSD-1015 all rats were decapitated and the nucleus accumbens and the striatum were removed for analysis. Following perchloric acid extraction of the tissue, the extracts were placed over alumina columns to collect and concentrate dopa and other catechols. This eluate was then subjected to HPLC analysis using electrochemical detection to quantify the levels of dopa present. Dopamine autoreceptor agonists, under the conditions used above, inhibit dopa accumulation.

[4] = tested on: mouse locomotor activity; assay: Reduction of mouse locomotor activity (hypolocomotion); assay type: in vivo, mouse (male, CF-1); conditions: 20 min, ip, horizontal activity counts 10 to 20 minutes after dosing
Protocol: The antipsychotic activity of the compounds of the invention was further established by a determination of the compounds' ability to reduce mouse locomotor activity according to the method of Martin and Bendensky, J. Pharmacol. Exp. Therap. 229: 706-711, 1984, in which mice (male, CF-1, Charles River, 20-30 g) were injected with vehicle or various doses of each drug and locomotor activity was measured for 30 minutes using automated infrared activity monitors (Omnitech-8×8 inch open field) located in a darkened room. ED50 's were calculated from the horizontal activity counts collected from 10 to 20 minutes after dosing using a nonlinear regression analysis with inverse prediction.

T1 sequence (P61169 whole entry): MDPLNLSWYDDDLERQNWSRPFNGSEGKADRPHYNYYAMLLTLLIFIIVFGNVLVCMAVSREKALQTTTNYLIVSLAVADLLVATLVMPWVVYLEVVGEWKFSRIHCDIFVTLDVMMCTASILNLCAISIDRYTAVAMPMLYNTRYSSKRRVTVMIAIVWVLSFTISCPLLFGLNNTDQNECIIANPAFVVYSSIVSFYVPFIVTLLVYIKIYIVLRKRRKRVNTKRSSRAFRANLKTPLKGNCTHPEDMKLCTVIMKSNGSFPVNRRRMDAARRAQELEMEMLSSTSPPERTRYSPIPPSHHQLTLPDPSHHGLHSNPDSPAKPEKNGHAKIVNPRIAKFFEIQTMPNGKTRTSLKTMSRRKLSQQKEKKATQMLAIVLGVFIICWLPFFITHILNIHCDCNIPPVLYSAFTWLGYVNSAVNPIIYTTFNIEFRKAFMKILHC

| Structure (SMILES) | inhibition at 0.1 µM [2] [%] | further results |
| --- | --- | --- |
| O=C1CC2(CCCC2)CC(=O)N1CCCCNCC1COc2ccccc2O1 (single isomer, unassigned; (-)) [(-)-MDL 72832, 8-[4-(1,4-benzodioxan-2-ylmethylamino)butyl]-8-azaspiro[4.5]decane-7,9-dione] |  | binds times as much as the dextrorotary isomer at the 5-HT1A receptor site [1]: 32 times |
| O=c1ccoc2cc(OCCCNCC3COc4cc5c(cc4O3)OCO5)ccc12 (stereo not drawn) [Example 1, 7-[3-[[(6,7-Dihydro-1,3-dioxolo[4,5-g][1,4]benzodioxin-6-yl)methyl]amino]propoxy]chromen-4-one] | 65 |  |
| O=c1ccoc2cc(OCCCNC[C@H]3COc4cc5c(cc4O3)OCO5)ccc12 [Example 2, (S)-7-[3-[[(6,7-Dihydro-1,3-dioxolo[4,5-g][1,4]benzodioxin-6-yl)methyl]amino]propoxy]chromen-4-one] | 73 | inhibition at 10 mg/kg [3]: 60.3%; ED50 [4]: 2.74 mg/kg |
| O=C1CCOc2cc(OCCCNCC3COc4cc5c(cc4O3)OCO5)ccc21 (stereo not drawn) [Example 4, 7-[3-[[(6,7-Dihydro-1,3-dioxolo[4,5-g][1,4]benzodioxin-6-yl)methyl]amino]propoxy]-chroman-4-one] | 24 |  |
| O=c1ccoc2ccc(OCCCNCC3COc4cc5c(cc4O3)OCO5)cc12 (stereo not drawn) [Example 5, 6-[3-[[(6,7-Dihydro-1,3-dioxolo[4,5-g][1,4]benzodioxin-6-yl)methyl]amino]propoxy]-chromen-4-one] | 39 |  |
| c1cc2c(cc1OCCCNCC1COc3cc4c(cc3O1)OCO4)CCCO2 (stereo not drawn) [Example 6, N-[3-(Chroman-6-yloxy)-propyl]-6,7-dihydro-1,3-dioxolo[4,5-g][1,4]benzodioxin-6-methanamine] | 23 |  |
| c1cc2c(cc1OCCCNCC1COc3cc4c(cc3O1)OCO4)OCCC2 (stereo not drawn) [Example 7, N-[3-(Chroman-7-yloxy)-propyl]-6,7-dihydro-1,3-dioxolo[4,5-g][1,4]benzodioxin-6-methanamine] | 24 |  |
| COc1ccc2c(c1)OC(CNCCCOc1ccc3c(=O)ccoc3c1)CO2 (stereo not drawn) [Example 8, 7-[3-[(7-Methoxy-2,3-dihydro-benzo[1,4]dioxin-2-ylmethyl)amino]propoxy]chromen-4-one] | 49 |  |
| O=c1ccoc2cc(OCCCNCC3COc4ccc(O)cc4O3)ccc12 (stereo not drawn) [Example 9, 7-[3-[(7-Hydroxy-2,3-dihydro-benzo[1,4]dioxin-2-ylmethyl)amino]propoxy]chromen-4-one] | 100 |  |
| O=C1COc2cc(OCCCNCC3COc4cc5c(cc4O3)OCO5)ccc21 (stereo not drawn) [Example 10, 6-[3-[(6,7-Dihydro-1,3-dioxolo[4,5-g][1,4]benzodioxin-6-ylmethyl)amino]propoxy)-benzofuran-3-one] | 43 |  |
